The subject of data set [1] is L1210 murine leukemia cells, cyclophosphamide-resistant (/CP). Briefly: In vitro soft agar colony-forming cytotoxicity assay, cyclophosphamide-resistant L1210 cells. The format is cell-based, mouse. More on the design: LC99: unit not given here. From the text: (§1) A soft agar colony-forming assay according to the procedure of Chu and Fischer, Biochem. Pharmacol., 17, 753-767 (1968) was used and modified where necessary. Cultured mouse L1210 and P388 sensitive cells were purchased from EG&G Mason Research Institute, Tumor Bank, Worchester, Mass. Cultured cyclophosphamide resistant L1210 and P388 cells were obtained from Dr. Robert Struck of Southern Research Institute, Birmingham, Ala. Typically, the desired cells (2-3×10^6 cells/ml) in exponential growth and suspended in 6.5 ml of Fischer's medium (Gibco Lab., Grand Island, N.Y.) were divided into six groups (1 control and 5 treated groups) containing an equal number of cells in 1 ml. These cells were then treated with varying doses of drug (solution of perhydrooxazine in media or 20% ethanol-water), diluted with media to give a total volume of 10 ml, and incubated for one hour at 37° C. The cells were washed three times with 3 ml of supplemented Fischer's medium (containing 10% horse serum) by centrifuge (800×g), removal of media by suction, and resuspension of the pellet in media (5 ml). A 1-ml portion was used to determine the cell count with a Coulter counter. From the remainder, a 5-ml suspension of cells was prepared at a density of 10^5 cells/ml, and between 10^2 and 10^5 cells were placed on soft agar and incubated at 37° C. Colonies were counted after 10 days. The log of the surviving fraction was plotted vs. drug concentration and from this plot the LC99 was obtained. (By definition, the LC99 value represents the concentration of drug necessary to effect a 99% cell kill.)

Data set [2] has as its system L1210 tumor cells. Briefly: In vivo antitumor activity, survival of L1210 bearing mice. More on the design: species or system mouse (male B6 D2 F1). The following applies: Mus musculus, L1210, ip, i.p., read-out: Survival of L1210 bearing mice - % T/C × 100. How it is done:
(§2) Typically 4 groups of 10 male B6 D2 F1 mice (Jackson Breeding Lab., Bar Harbor Me) were injected i.p. with 1×10^5 L1210 tumor cells. Twenty four hours after injection three groups were treated (i.p. injection) with varying doses of drug, and the fourth group received the vehicle alone. The mice were observed daily and death dates were recorded. The experiment was terminated on day 30 and median survival time (days) and % T/C (ratio of median survival time of treated group divided by the […] survival time of the control group) was calculated. The drug was delivered using either an isotonic saline solution or a carboxymethyl cellulose suspension depending on the solubility of the drug.

The subject of data set [3] is P388 murine leukemia cells, cyclophosphamide-resistant (/CP). Briefly: In vitro soft agar colony-forming cytotoxicity assay, cyclophosphamide-resistant P388 cells. The data set is classed as cell-based, mouse. More on the design: LC99: unit not given here.
Excerpt: as §1

The test system of data set [4] is L1210 murine leukemia cells, cyclophosphamide-sensitive (/0). Briefly: In vitro soft agar colony-forming cytotoxicity assay, cyclophosphamide-sensitive L1210 cells. The data set is classed as cell-based, mouse. More on the design: unit not given here. The following applies: L1210 /0 (sensitive); 1-hour exposure, 99% cell kill.
Excerpt: as §1

The test system of data set [5] is P388 murine leukemia cells, cyclophosphamide-sensitive (/0). Briefly: In vitro soft agar colony-forming cytotoxicity assay, cyclophosphamide-sensitive P388 cells. The data set is classed as cell-based, mouse. More on the design: unit not given here. To be noted: P388 /0 (sensitive); 1-hour exposure, 99% cell kill.
Excerpt: as §1

The test system of data set [6] is CP-resistant L1210 cells. Briefly: In vivo antitumor activity, survival of mice bearing CP-resistant L1210 cells. To be noted: for Survival of L1210 bearing mice - % T/C × 100: CP-resistant L1210, i.p. More on the design: species or system mouse (male B6 D2 F1). Here is the method: as §2

SMILES strings stand for the structures.

In the case of `O=P1(N(CCCl)CCCl)NC(OO)CCO1` (centres unmarked) [Ref, reference compound], the LC99 was 141 in data set [1] (L1210 /CP (cyclophosphamide-resistant), 1-hour exposure, 99% cell kill); 60 in data set [3] (P388 /CP (cyclophosphamide-resistant), 1-hour exposure, 99% cell kill); 8 in data set [4]; 6 in data set [5]. For the same compound, the “RF, resistance factor = ratio of LC99 in resistant/sensitive cells” value in data set [1] (L1210, 60 min) is listed as 17; in data set [3] (P388, 60 min) it was 10. Further, the response vs control in vivo at 17 µmol/kg in data set [2] (17 umol/kg) stood at 136%. For the same compound, the response vs control in vivo at 34 µmol/kg in data set [2] (34 umol/kg) turned out to be 194%. Moreover, in data set [2] (51 umol/kg), the response vs control in vivo at 51 µmol/kg was 50%. Moreover, the “toxicity” value in data set [6] (51 umol/kg dose, mice bearing cyclophosphamide resistant L1210) is reported as “toxicity is apparent at the 51 umol/kg dose”. For the same compound, the “Survival of L1210 bearing mice - % T/C × 100” value in data set [6] (17 umol/kg) is on record as 112%; in data set [6] (34 umol/kg), 100%; in data set [6] (51 umol/kg), 75%. In addition, the “survival / lifespan of mice bearing cyclophosphamide resistant L1210 leukemia” value in data set [6] (cyclophosphamide resistant L1210 leukemia) is on record as “no significant increase in lifespan is observed”.

The values are drawn from patent publication US5190929A, “Cyclophosphamide analogs useful as anti-tumor agents” (Research Corporation Technologies, Inc., priority 1988, dated 1993).
